Experimental data published in the OPERA property sets (Mansouri et al. 2018).

Compared with Cc1nsnc1C, Cc1n[se]nc1C is lower in logP: 1.28 for the first, 0.89 for the second.

Going from Cc1no[n+]([O-])c1C to Cc1c(Cl)no[n+]1[O-], the logP rises from 0.23 to 1.02.

Cc1nonc1S(=O)c1ccccc1 (stereo not given) and Cc1no[n+]([O-])c1S(=O)c1ccccc1 (stereo not given) are within 0.2 log units of each other in logP: 1.76 for the first, 1.75 for the second.

Cc1no[n+]([O-])c1Sc1ccccc1 and Cc1c(Sc2ccccc2)no[n+]1[O-] are within 0.2 log units of each other in logP: 2.74 for the first, 2.63 for the second.

Compared with [O-][n+]1onc2ccccc21, [O-][n+]1onc(Cl)c1-c1ccccc1 is higher in logP: 1.43 for the first, 2.82 for the second.

Cc1no[n+]([O-])c1Cc1ccccc1 and Cc1c(Cc2ccccc2)no[n+]1[O-] are within 0.2 log units of each other in logP: 2.22 for the first, 2.08 for the second.

[O-][n+]1onc(-c2ccccc2)c1-c1ccccc1 and c1ccc(-c2nonc2-c2ccccc2)cc1 are within 0.2 log units of each other in logP: 3.64 for the first, 3.83 for the second.

Compared with CC(=O)c1c(C)no[n+]1[O-], Cc1no[n+]([O-])c1C(N)=O is lower in logP: 0.98 for the first, 0.36 for the second.

First: Cc1nonc1C
Second: Cc1nonc1N
The logP of the first is higher: 0.71 for the first, 0.09 for the second.

Compared with c1cnon1, c1ccc2nonc2c1 is higher in logP: 0.16 for the first, 1.69 for the second.

First: Cc1c(-c2ccccc2)no[n+]1[O-]
Second: Nc1c(-c2ccccc2)no[n+]1[O-]
The logP of the first is higher: 2.17 for the first, 1.42 for the second.

First: Cc1c(S(=O)(=O)c2ccccc2)no[n+]1[O-]
Second: Cc1no[n+]([O-])c1S(=O)(=O)c1ccccc1
The logP of the first is lower: 2.03 for the first, 2.26 for the second.

Going from O=Cc1c(-c2ccccc2)no[n+]1[O-] to [O-][n+]1onc(-c2ccccc2)c1Cl, the logP falls from 2.92 to 2.7.

Going from CCCc1nonc1C to CCc1nonc1C, the logP falls from 1.71 to 1.18.

Compared with Cc1c(S(=O)c2ccccc2)no[n+]1[O-] (stereo not given), Cc1no[n+]([O-])c1-c1ccccc1 is higher in logP: 1.5 for the first, 2.16 for the second.

Going from Cc1no[n+]([O-])c1C=O to Cc1c(C=O)no[n+]1[O-], the logP falls from 1.29 to 1.02.

First: CC(=O)Nc1nonc1N
Second: CC(=O)Nc1nonc1C
The logP of the first is lower: -0.23 for the first, 0.17 for the second.

[O-][n+]1onc(-c2ccccc2)c1CO and [O-][n+]1onc(CO)c1-c1ccccc1 are within 0.2 log units of each other in logP: 1.77 for the first, 1.64 for the second.

COC(=O)c1c(C)no[n+]1[O-] and COC(=O)c1no[n+]([O-])c1C are within 0.2 log units of each other in logP: 0.69 for the first, 0.56 for the second.

Compared with Cc1nonc1-c1ccccc1, Nc1nonc1-c1ccccc1 is lower in logP: 2.59 for the first, 1.81 for the second.

Compared with COC(=O)c1nonc1C, Cc1nonc1C(N)=O is lower in logP: 0.94 for the first, 0.31 for the second.

Going from [O-][n+]1onc(Cc2ccccc2)c1Cc1ccccc1 to O=Cc1no[n+]([O-])c1-c1ccccc1, the logP falls from 3.65 to 2.61.

Going from Cc1nonc1Sc1ccccc1 to Cc1nonc1S(=O)(=O)c1ccccc1, the logP falls from 2.92 to 2.36.

Compared with Cc1nonc1[N+](=O)[O-], Cc1nonc1-c1ccccc1[N+](=O)[O-] is higher in logP: 0.97 for the first, 2.21 for the second.

First: Nc1no[n+]([O-])c1-c1ccccc1
Second: Clc1nonc1-c1ccccc1
The logP of the first is lower: 1.47 for the first, 3.2 for the second.

COC(=O)Nc1nonc1C and CNC(=O)Nc1nonc1C are within 0.2 log units of each other in logP: 0.42 for the first, 0.3 for the second.

First: Nc1nonc1NC(=O)c1ccccc1
Second: OCc1nonc1-c1ccccc1
The logP of the first is lower: 1.41 for the first, 1.92 for the second.

Compared with CC(=O)c1no[n+]([O-])c1C, Cc1c(C(N)=O)no[n+]1[O-] is lower in logP: 0.8 for the first, 0.03 for the second.

Going from CNC(=O)c1nonc1C to Nc1nonc1N, the logP falls from 0.56 to -0.49.

Cc1c(N)no[n+]1[O-] and Cc1no[n+]([O-])c1N are within 0.2 log units of each other in logP: -0.17 for the first, -0.32 for the second.

First: c1ccc2n[se]nc2c1
Second: c1ccc2nsnc2c1
The logP of the first is lower: 1.64 for the first, 1.98 for the second.

Compared with O=[N+]([O-])c1nonc1-c1ccccc1, CCS(=O)(=O)c1no[n+]([O-])c1C is lower in logP: 2.63 for the first, 0.65 for the second.

With Cc1no[n+]([O-])c1Cl the logP was 0.9.
